Source: patent US11661398B2, “Cellular transport system for transferring a sulfonic acid construct carrying a cargo into the cytoplasm of a cell” (Scientist of Fortune, S.A., priority 2017, dated 2023)
Peptide text beside a SMILES is read from it.

How the values were obtained:
TK090 = assay: Complementation of NAD+ auxotrophic strain; format: cell-based, E. coli; settings: for concentration needed to support growth as NAD+ source: TK090[pSsuABC, pPnGGT*]; for growth with compound as sole source of NAD+: spent MS minimal medium, 25 μM N-picolyl-sulfobutyramide, different plasmid combinations
Method: FIG. 27. Utilization of NAD^+ precursors. NAD^+ auxotrophic strain TK090 [pSsuABC; pPnGGT*] was grown in MS minimal medium containing 0.5% glucose, 1 mM MgSO4, 0.4 mM leucine, 0.5 mM IPTG, 100 ng ml^−1 aTc and varying concentrations of either 3-picolylamine (a) or nicotinic acid (b). […] Dots represent the average of three independent measurements with standard deviations shown as error bars.
Selection experiments with NAD^+ auxotrophic strains are prone to contamination with unwanted NAD^+ sources and therefore demand special preparation of the precultures and medium. For the precultures, all tested strains were incubated overnight in MS minimal medium supplemented with 0.5% glucose, 1 mM MgSO4, 0.4 mM L-leucine and 5 μM nicotinic acid. To guarantee complete consumption of nicotinic acid, precultures were then diluted 100-fold in MS minimal medium supplemented only with 0.5% glucose, 1 mM MgSO4 and 0.4 mM L-leucine, but no additional NAD^+ source. Following an overnight incubation period, NAD^+-deprived cells were washed twice in the same medium and used for growth assays.
To prepare the medium for final growth assays, MS minimal medium was supplemented with 0.5% glucose, 1 mM MgSO4, 0.4 mM L-leucine and 25 μM N-picolyl-sulfobutyramide (see below for description of synthesis). To remove all NAD^+ contaminants, the medium was inoculated overnight with strain TK090, which can utilize free NAD^+ precursors, but cannot take up or hydrolyze N-picolyl-sulfobutyramide due to the absence of SsuABC and PnGGT*. After an overnight incubation period, cells were separated from the medium by centrifugation and the supernatant was filtered using a Minisart 0.22 μm High Flow Syringe Filter (Sartorius, Goettingen, Germany). The filtered supernatant was then supplemented with the respective antibiotics and inducers and used for growth assays.

TK054 = assay: Leucine auxotrophy complementation with peptide vector; format: cell-based, E. coli; settings: 1 mM peptide, plasmid pACT3/6×His_PnGGT ΔN24, 0.5 mM IPTG, 37° C., 5 days or more
Method: (§1) LB Miller broth (Becton Dickinson, Sparks, Md., USA) was used as standard growth medium for bacterial cultures (Sambrook, 2001). For the preparation of competent cells, SOB medium was used (Hanahan, 1983). Unless stated otherwise, growth experiments in selective medium were carried out in M9 minimal medium (Sambrook, 2001) supplemented with 0.5% glucose, 1 μg mL^−1 thiamine, 0.5 mM IPTG and 1 mM alanyl-γ-glutamyl-leucine (>95% purity, custom synthesized by Pepscan, Lelystad, Netherlands). For growth experiments on solid medium Bacto Agar (Becton Dickinson) was added to a final concentration of 1.5%. Growth experiments in liquid medium were performed either in a Tecan Infinite 200 Pro plate reader (Tecan, Mannedorf, Switzerland) or in a Biolector Basic Microbiorector System (m2p-labs, Baesweiler, Germany). All growth experiments were performed at 37° C. […]
The possibility to express 6×His_PnGGT ΔN24 in the cytoplasm of E. coli and the enzyme's relaxed substrate specificity (Imaoka et al., 2010) opened up the possibility to selectively hydrolyze γ-glutamyl compounds within the cytoplasm. […] As a cargo, leucine was chosen, whose successful release could be easily detected by restoring growth to a leucine auxotrophic strain. […]

TK054 ΔpcnB = assay: as above; format: cell-based, E. coli; settings: 1 mM peptide, 6×His_PnGGT ΔN24 expressed, IPTG present
Method: as §1
To verify that the beneficial effects to growth with Ala-γ-Glu-Leu were caused by activity reducing mutations in pcnB, the entire gene was removed from the unmutated leucine auxotrophic selection strain, resulting in strain TK054 ΔpcnB. On M9 minimal medium containing 0.5% glucose and 1 mM Ala-γ-Glu-Leu as the only source of leucine, no growth of this strain was detected if the inducer IPTG was omitted (FIG. 6a). […]

TK082 = assay: In vivo hydrolysis of sulfobutanoyl-p-nitroanilide and sulfobutanoyl-AMC; format: cell-based, E. coli
Method: Strain TK082 was transformed with plasmids as indicated in the text and grown at 37° C. in MS minimal medium supplemented with 0.5% glucose, 1 mM MgSO4 and 0.4 mM L-leucine to an OD600 of 0.5. At that stage, the synthesis of PnGGT* and/or SsuABC was induced for 2 hours by adding 0.5 mM IPTG and 100 ng mL^−1 aTc. Following this synthesis period, cells were washed in the same medium to remove proteins that had been released into the medium by cell lysis. After an additional centrifugation step, cells were resuspended in MS minimal medium supplemented with 0.5% glucose, 1 mM MgSO4, 0.4 mM L-leucine, 0.5 mM IPTG, 100 ng mL^−1 aTc and 0.5 mM sulfobutanoyl-p-nitroanilide or sulfobutanoyl-AMC (see below for description of synthesis) and incubated in a Tecan Infinite 200 Pro plate reader at 37° C. To monitor cell density and the release of 4-nitroaniline, absorbance was constantly measured at 600 nm and 410 nm. The release of AMC was monitored by measuring the fluorescence at λex=350 nm and λem=450 nm. To determine the influence of competition for the sulfonate transporter SsuABC, different concentrations of pentanesulfonate (Sigma Aldrich) were added to the medium.

BW25113 ΔleuB (TK080) = assay: Growth on different sulfur sources; format: cell-based, E. coli; settings: 1 mM sulfur source, minimal medium, 0.5% glucose, 0.4 mM leucine
Method: FIG. 21: Growth of E. coli on sulfonates. Strains TK080 (a; BW25113 ΔleuB) and TK082 (b; BW25113 ΔleuB ΔssuEADCB ΔtauD) were grown in MS minimal medium supplemented with 0.5% glucose, 0.4 mM L-leucine, 1 mM MgCl2 and 1 mM of a sulfur source. TK080 was able to use the majority of the tested sulfur sources with a similar efficiency as sulfate. […] Dots represent the average of three independent measurements with standard deviations shown as error bars.
For the experiments relating to the sulfonate based synthetic transport system, unless stated otherwise, growth experiments in selective medium were carried out in sulfur free MS minimal medium (4 mM citric acid, 1 mM MgCl2, 20 mM NH4Cl, 50 mM KH2PO4 and 1×NTA mix (10 μM nitrilotriacetic acid, 3 μM CaCl2, 3 μM FeCl3, 1 μM MnCl2, 0.3 μM ZnCl2, 0.3 μM H3B3, 0.3 μM CrC3, 0.3 μM COCl2, 0.3 μM CuCl2, 0.3 μM Ni2C, 0.3 μM Na2MoO4, 0.3 μM Na2SeO3)) supplemented with 0.5% glucose. MgSO4 (1 mM), MgCl2 (1 mM), L-leucine (0.4 mM), IPTG (0.5 mM), aTc (100 ng mL-1), nicotinic acid (various concentrations), 3-picolylamine (various concentrations) and sulfonates (various concentrations) as indicated in the text. […] Synthesis schemes for sulfobutanoyl-p-nitroanilide and other sulfonates are given below.
The sulfonate transporters SsuABC and TauABC transport a wide variety of sulfonate compounds (Eichhorn et al., 2000) and can thus be exploited for the present synthetic transport system. As such, the uptake and utilization of sulfobutanoyl-L-leucine was assessed. The leucine auxotrophic strain BW25113 ΔleuB was tested for growth in minimal medium supplemented with 0.5% glucose, 0.4 mM leucine, 0.4 mM isoleucine and 1 mM of a sulfur-containing compound as the sole sulfur source.

TK088[pSsuABC] = assay: Growth of histidine auxotrophic strain in liquid medium; format: cell-based, E. coli; settings: liquid MS minimal medium, 0.5 mM compound, pACT3 versus pPnGGT*
Method: FIG. 22: Identification of GGT* activity and refactoring of the ssuABC operon. (a) Cell free extracts of strain TK018 synthesizing either EcGGT, EcGGT D433N, PnGGT or PnGGT D405N were incubated with 2 mM of the substrates γ-glutamyl-p-nitroanilide or sulfobutanoyl-p-nitroanilide (5), respectively. The release of 4-nitroaniline was quantified by measuring the absorption at 410 nm. (b) Plasmid map of the three-dimensional RBS-library for refactoring the ssuABC operon using 144 RBS variants per gene. RBS library sequences are underlined. Arrows point towards the final RBS sequences observed in plasmid pSsuABC. […] (e) Growth of strain TK088[pSsuABC]transformed with the empty vector pACT3 (black circles) or plasmid pPnGGT* (white circles) in liquid MS minimal medium supplemented with 0.5% glucose, 1 mM MgSO4, 0.4 mM L-leucine, 0.5 mM IPTG, 100 ng ml^−1 aTc and 0.5 mM sulfobutanoyl-L-histidine. Bars and dots from panels (a), (d) and (e) represent the average of three independent measurements with standard deviations shown as error bars. […]

[1] = substrate: CC(C)C[C@H](NC(=O)CCCS(=O)(=O)O)C(=O)O; assay: purified protein, by the assay type; settings: other: kinetic studies cited in Example 11, conditions not given

Molecule: NCc1cccnc1 [3-picolylamine]
- concentration necessary to complement the NAD+ auxotrophy compared to nicotinic acid (TK090; MS minimal medium): 500 to 1000 fold
- concentration needed to support growth as NAD+ source (TK090; MS minimal medium): above 50 μM
- growth with compound as sole source of NAD+ (TK090): no growth was observed

Molecule: CC(C)C[C@H](NC(=O)CC[C@H](NC(=O)[C@H](C)N)C(=O)O)C(=O)O [Ala-γ-Glu-Leu, alanyl-γ-glutamyl-leucine] (HELM PEPTIDE1{A.[gGlu].L}$$$$V2.0)
- growth with peptide as sole source of leucine (TK054): poor growth
- growth with peptide as sole source of leucine (TK054 ΔpcnB): grew rapidly

Molecule: O=C(CCCS(=O)(=O)[O-])NCc1cccnc1.[Na+] [N-picolyl-sulfobutyramide, N-(3-Pyridinylmethyl)sulfobutyramide sodium salt]
- growth with compound as sole source of NAD+ (TK090): only observed when both the sulfonate transporter SsuABC and PnGGT* were synthesized simultaneously

Molecule: O=C(O)c1cccnc1 [nicotinic acid]
- concentration needed to support growth as NAD+ source (TK090; MS minimal medium): sub-micromolar concentrations

Molecule: CCCCCS(=O)(=O)O [pentanesulfonate, reference compound]
- effect of competitor on release of 4-nitroaniline from 0.5 mM sulfobutanoyl-p-nitroanilide (TK082; TK082[pSsuABC, pPnGGT*]): sufficient to slow down the release of 4-nitroaniline
- effect of competitor on release of AMC from 0.5 mM sulfobutanoyl-AMC (TK082; TK082[pSsuABC, pPnGGT*]): sufficient to slow down the release of AMC in the presence of SsuABC

Molecule: Cc1cc(=O)oc2cc(NC(=O)CCCS(=O)(=O)O)ccc12 [sulfobutanoyl-AMC, N-(4-Methyl-2-oxo-2H-1-benzopyran-7-yl)sulfobutyramide]
- growth with compound as sole sulfur source (BW25113 ΔleuB (TK080)): utilized with a lower efficiency
- in vivo release of AMC from the compound (TK082; 0.5 mM compound, different plasmid combinations): some release of the dye was detected in a strain expressing only PnGGT*

Molecule: O=C(CCCS(=O)(=O)O)N[C@@H](Cc1c[nH]cn1)C(=O)O [sulfobutanoyl-L-histidine]
- growth with compound as sole sulfur source (BW25113 ΔleuB (TK080)): comparable efficiencies
- growth with compound as sole histidine source (TK088[pSsuABC]): Entirely equivalent results
- growth with compound as sole histidine source (TK088[pSsuABC]; listed as sulfubutanoyl-L-histidine): grew significantly faster and to higher cell densities

B1: PnGGT ΔN24 D405N (Pseudomonas nitroreducens; D405N) (protein)
chain: MRGSHHHHHHGSACELTLDGGAVAAPDQYGAKVAAEILKKGGNAVDAAVATAFTLAVTYPEAGNIGGGGFMTLYVDGKPYFLDYREIAPKAATKTMYLNEKGEVIENLSLVGAKAAGVPGTVMGLWEAHQRFGKLKWSELLTPAIGYAQTGFKVADQQYQYRQDAIALFNGKTNFGDYFGTMKPGEVFKQPELAKTLERIADKGPDDFYKGETAKLLIAQMKQDGGLITSDDLVDYQAKWREPMRIDWQGNTLYTAPLPSSGGIALAQLIGIKEQRAADFKGVELNSAKYIHLLSEIEKRVFADRADYLGDPQFSKVPVAQLTDPKYIAKRAGEVNPDAISATEKVRPGLEPHQTTHFSIVDKDGNAVSNTYTLNWDFGSGVVVKGAGFLLNDEMDNFSSKPGVANAFGVVGSDANAIEPGKRMLSSMSPSIVTRDGHVSLVLGTPGGSRIFTSIFQVLNNVYDFHLPLEKAVAAQRVHHQLLPKDTIYYDAYAPLPGKVADELKAMGYTLEDQGWNMGDIQAIRVNGKALETASDPRGRGVGMVVKP
- Km [1]: 734 µM
